# Experiments:
# HIV-1 6R(AZT^R) = assay: XTT cytopathicity assay, AZT-resistant 6R; format: cell-based; details: MT-4, 6R(AZT^R)
# Experimental: (§1) Initial anti-HIV screening was performed with CEM-SS cells and HIV-1RFusing the XTT cytoprotection assay as previously described (Weislow et al., J. National Cancer Inst. 81: 577-586, (1989)). HIV-1 isolates included common laboratory stains (RF, IIIB and MN), as well as a panel of HIV-1 clinical isolates (Cushman et al., J. Med. Chem. 37: 3040-3050, (1994)). The pyridone-resistant HIV-1A17 isolate (Nunberg et al., J. Virol., 65: 4887-4892 (1991)) was obtained from Emilio Emini at Merck Sharpe and Dohme Laboratories. Phytohemagglutinin-stimulated human peripheral blood lymphocytes (PBLs) and fresh monocyte-macrophage (Mono/MF) cultures were prepared and utilized in antiviral assays as previously described (Rice et al., Proc. Nat'l. Academy Science, USA 90: 9721-9724, (1993)); (Cushman et al., J. Med. Chem. 37: 3040-3050, (1994)). EC50 values for these cultures indicate the drug concentration that provided a 50% reduction in viral p24 production. […] The compounds can be synthesized according to the teachings of Singh et al., Sulfur Letters 8: 107-114, (1988). The 4,5-cis-dihydroxy(1,1-dioxy-1,2,-dithiohexane) compound (NSC 624151) has been abbreviated as 624151 for convenience. […]
# HIV-1NL4-3 Y188C = assay: XTT cytopathicity assay, NL4-3 site-directed RT mutant; format: cell-based; details: MT-2, NL4-3 Y188C
# Experimental: Initial anti-HIV screening was performed with CEM-SS cells and HIV-1RFusing the XTT cytoprotection assay as previously described (Weislow et al., J. National Cancer Inst. 81: 577-586, (1989)). HIV-1 isolates included common laboratory stains (RF, IIIB and MN), as well as a panel of HIV-1 clinical isolates (Cushman et al., J. Med. Chem. 37: 3040-3050, (1994)). The pyridone-resistant HIV-1A17 isolate (Nunberg et al., J. Virol., 65: 4887-4892 (1991)) was obtained from Emilio Emini at Merck Sharpe and Dohme Laboratories. Phytohemagglutinin-stimulated human peripheral blood lymphocytes (PBLs) and fresh monocyte-macrophage (Mono/MF) cultures were prepared and utilized in antiviral assays as previously described (Rice et al., Proc. Nat'l. Academy Science, USA 90: 9721-9724, (1993)); (Cushman et al., J. Med. Chem. 37: 3040-3050, (1994)). EC50 values for these cultures indicate the drug concentration that provided a 50% reduction in viral p24 production. […] The compounds can be synthesized according to the teachings of Singh et al., Sulfur Letters 8: 107-114, (1988). The 4,5-cis-dihydroxy(1,1-dioxy-1,2,-dithiohexane) compound (NSC 624151) has been abbreviated as 624151 for convenience. MT-2, MT-4, U1, HeLa-CD4-LTR-β-gal and 174xCEM cells were obtained from the AIDS Research and Reference Program (National Institute of Allergy and Infectious Disease, National Institutes of Health, Bethesda, Md. USA), as were the HIV-2MS and the AZT-resistant HIV-1G910-6 isolates.
# ^a Anti-HIV studies utilizing lymphocytederived cell lines were
# performed using the XTT cytopathicity assay, while antiviral assays
# [1] = target: T1, p7NC protein in intact HIV-1MN virions (HIV-1 M:B_MN, UniProt P05888); assay: p7NC immunoblot of treated intact virions, non-reducing SDS-PAGE; format: biochemical; details: for detectable virion p7NC / cross-linkage of virion NC proteins: HIV-1MN, FIG. 2(A)
# T1 construct: cut from Gag polyprotein Pr55gag (also Gag-Pol Pr160)
# Experimental: Fluorescence measurements of the Trp^37 residue in the C-terminal zinc finger of the recombinant HIV-1 p7NC protein were performed as previously described (Rice et al., Science 270:1194, 1995). The p7NC protein was prepared at 20 μg/ml in 10 mM sodium phosphate buffer (pH 7.0), treated with 25 μM of each compound, then after indicated time intervals the samples were diluted 1/10 in 10 mM sodium phosphate buffer (pH 7.0) and the fluorescence intensity measured. The excitation and emission wavelengths utilized with the Shimadzu RF5000 spectrofluorimeter were 280 nm and 351 nm, respectively. In an alternate assay, the zinc-selective fluorescent probe N-(6-methoxy-8quinolyl-)-p-toluenesulfonamide (TSQ, Molecular Probes, Eugene, Oreg.) originally described by Fredrickson (J. Neurosci. Meth. 20:91, 1987) was utilized to measure zinc released from the p7NC protein in vitro. Briefly, 2 μM recombinant HIV-1 p7NC protein in 10 mM sodium phosphate buffer, pH 7.0, 10% glycerol was treated with 10 μM 624151 ([…] total volume in 96-well plates), and the time-dependent increase in fluorescence was measured on a Labsystems Fluoroskan II (360 nm excitation filter and 460 nm emission filter) over a period of 2 hours. Induction of alterations of p7NC proteins within intact virions involved treatment of HIV-1MN for 1 hour at 37° C. with 25 μM test compound. Samples were centrifuged 1 hour at 4° C. under 18,000×g to pellet the virus from the drug. Virus pellets were resolved by non-reducing SDS-PAGE and analyzed by immunoblot using monospecific rabbit antisera to the purified p7NC protein.
# In order to determine if the 624151 entered intact HIV-1 virions and affected the p7NC protein zinc fingers, purified HIV-1MN was treated with increasing concentrations of the compound and the viral proteins were then separated by non-reducing SDS-PAGE and immunoblotted with monospecific antisera to the p7NC protein (FIG. 2(A)). […] Thus, 624151 effectively entered and inactivated cell-free HIV-1 virions by chemically attacking the p7NC CCHC zinc fingers and promoting cross-linkage among the p7NC proteins.
# U1 cells = assay: U1 cell viability (XTT) and cell number; format: cell-based; details: TNF-α stimulated U1 cells, 48 hours, FIG. 3(A)
# Experimental: U1 cells latently infected with two copies of HIV-1 proviral DNA per cell (Clous et al., J. Immunol. 142: 431-438, (1989)) were treated with 5 ng/ml tumor necrosis factor-α(TNF-α) for 24 hours to stimulate production of HIV-1 virions, after which various concentrations of 624151 were added to the cultures and incubated for an additional 48 hours. Cultures were analyzed for cell viability by the XTT reduction assay and cells were counted and scored for viability by trypan blue exclusion. Cells pellets were lysed (0.5% Triton X-100, 300 mM NaCl, 50 mM Tris-HCl, pH 7.6, 10 μg/ml each of Leupeptin and aprotinin (Boehringer Mannheim), 1.8 mg/ml iodoacetamide (Sigma Chemical Co., St. Louis, Mo.) and 1.0 mg/ml the protease inhibitor Pefabloc SC (Boehringer Mannheim at 4° C. for 15 min. and then quantitated for viral p24 content by ELISA. Cell-free supernatant samples were collected and analyzed for virus content by p24 ELISA, and infectivity in cultures of 174xCEM cells. Briefly, serial 1/2 dilutions of the supernatant were placed with 5×10^3 174xCEM cells and cultured for 7 days, cell supernatants were analyzed for viral p24 content, and the number of infectious units/ml calculated. In addition, cell free supernatants were centrifuged at 17,000×g for 1 hour at 4° C. to collect virion pellets. […]
# HIV-1 SK1 = assay: XTT cytopathicity assay, SK1; format: cell-based; details: Human immunodeficiency virus 1, CEM-SS
# Experimental: as §1
# [2] = non-reducing SDS-PAGE, in words
structure (smiles),measurement,setting,value
"O=S1(=O)C[C@H](O)[C@H](O)CS1 (relative stereo) [NSC 624151, cis-1,1-dioxo[1,2]dithiane-4,5-diol]",EC50,HIV-1 6R(AZT^R),7.2 µM
same,EC50,HIV-1NL4-3 Y188C,19.4 µM
same,detectable virion p7NC / cross-linkage of virion NC proteins,[1]; [2],enter intact virions and cause disulfide cross-linkage between virion NC proteins
same,detectable virion p7NC / cross-linkage of virion NC proteins,"[1]; non-reducing SDS-PAGE, in words, listed as 624151",decreases in the amounts of detectable virion p7NC
same,interactions with other viral proteins,[1]; [2],no interactions with other proteins was observed
same,virion p7NC profile under reducing conditions,[1]; reducing conditions (not shown),no alterations in the virion p7NC profile were observed
same,cell viability (XTT) or cell number,U1 cells,did not significantly reduce cell viability (XTT) or cell number
same,EC50,HIV-1 SK1,22.7 µM

# — patent publication US6046228A, “Anti-viral pharmaceutical compositions containing saturated 1,2-dithiaheterocyclic compounds and uses thereof” (priority 1999, dated 2000)
